Source: ChEMBL document CHEMBL1201862, “PubChem BioAssay data set” (2004)
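A five-concentration, 48-hour dose response in 96-well plates underlies each endpoint, interpolated linearly between surrounding concentrations. GI50 = concentration required for 50% inhibition of growth.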 The source made the active and inactive calls. Rule as the data show it: active = GI50 up to about 1.1 µM and inactive = higher.

Experiments:
Assay in all cases: NCI tumour cell line growth inhibition, 48 h
786-0 = test system: 786-0
A498 = test system: A498
ACHN = test system: ACHN
CCRF-CEM = test system: CCRF-CEM
HCC 2998 = test system: HCC 2998
HCT-15 = test system: HCT-15
HOP-92 = test system: HOP-92
HT-29 = test system: HT-29
IGROV-1 = test system: IGROV-1
LOX IMVI = test system: LOX IMVI
M14 = test system: M14
OVCAR-3 = test system: OVCAR-3
OVCAR-4 = test system: OVCAR-4
RPMI-8226 = test system: RPMI-8226
RXF 393 = test system: RXF 393
SF-295 = test system: SF-295
SF-539 = test system: SF-539
SNB-75 = test system: SNB-75
UACC-62 = test system: UACC-62
NCI-H460 = test system: NCI-H460

Structure (SMILES)	GI50 (786-0)	GI50 (A498)	GI50 (ACHN)	GI50 (CCRF-CEM)	GI50 (HCC 2998)	GI50 (HCT-15) [µM]	GI50 (HOP-92)	GI50 (HT-29)	GI50 (IGROV-1)	GI50 (LOX IMVI)	GI50 (M14)	GI50 (OVCAR-3)	GI50 (OVCAR-4)	GI50 (RPMI-8226)	GI50 (RXF 393)	GI50 (SF-295)	GI50 (SF-539)	GI50 (SNB-75)	GI50 (UACC-62)	GI50 (NCI-H460)
C=CCO/N=C/c1cc(/N=C(/S)c2ccoc2C)ccc1Cl	22.6 µM (inactive)	20 µM (inactive)	5.71 µM (inactive)	33.3 µM (inactive)	10.5 µM (inactive)	8.26	17.3 µM (inactive)	10.3 µM (inactive)	13.2 µM (inactive)	14.6 µM (inactive)	16.6 µM (inactive)	11.5 µM (inactive)	5.18 µM (inactive)	3.27 µM (inactive)	21.3 µM (inactive)	9.48 µM (inactive)	25.4 µM (inactive)	15.7 µM (inactive)	14.4 µM (inactive)	–
Cc1nc2ccc(F)cc2c(Cl)c1CCCl	34.1 µM (inactive)	63.1 µM (inactive)	78.7 µM (inactive)	18.6 µM (inactive)	33.4 µM (inactive)	34.3	36 µM (inactive)	25 µM (inactive)	59.8 µM (inactive)	25.2 µM (inactive)	–	42.3 µM (inactive)	83.8 µM (inactive)	42.8 µM (inactive)	21.7 µM (inactive)	51.1 µM (inactive)	67.3 µM (inactive)	72.6 µM (inactive)	27.7 µM (inactive)	30.5 µM (inactive)
COC(=O)[C@@H](NC(=O)N(CCC#N)CCCN(C(=O)N[C@H](Cc1ccccc1)C(=O)OC)c1ccccc1)C(C)C	> 100 µM (inactive)	> 100 µM (inactive)	85.5 µM (inactive)	85.1 µM (inactive)	47.3 µM (inactive)	86.3	29.9 µM (inactive)	–	59.3 µM (inactive)	97.3 µM (inactive)	> 100 µM (inactive)	57.8 µM (inactive)	50.4 µM (inactive)	25.1 µM (inactive)	95.9 µM (inactive)	> 100 µM (inactive)	> 100 µM (inactive)	> 100 µM (inactive)	33.3 µM (inactive)	–
O=C(NOC(=O)c1ccc([N+](=O)[O-])cc1)c1ccc(Cl)cc1	54.6 µM (inactive)	> 100 µM (inactive)	37.6 µM (inactive)	28.2 µM (inactive)	> 100 µM (inactive)	35.7	27.4 µM (inactive)	> 100 µM (inactive)	21.4 µM (inactive)	6.87 µM (inactive)	> 100 µM (inactive)	–	88.9 µM (inactive)	65.2 µM (inactive)	87.1 µM (inactive)	> 100 µM (inactive)	> 100 µM (inactive)	15 µM (inactive)	36.2 µM (inactive)	> 100 µM (inactive)
